Experimental data reported in patent publication US5225411A, “Disubstituted polymethyleneimines” (priority 1990, dated 1993).

Columns and labels:
[1] = test system: line P 388/ADR 10; test: Flow cytometry, increase in fluorescence of ADR on the line P 388/ADR 10; assay type: cell-based, murine; conditions: ADR 50 μM, 5 h
Description: (§1) By measuring that fluorescence it is possible to obtain a relative measurement of the intracellular concentration of ADR.
(§2) […] After 5 hours' incubation, the intracellular uptake of adriamycin was evaluated by FCM.
(§3) The analysis of each of the samples was carried out on a total of 10,000 cells at a speed of 1000 cells/sec.
(§4) The results were presented in the form of linear histograms of the intracellular ADR fluorescence.
(§5) Expression of the Results
(§6) For each of the histograms, the channel mean fluorescence was determined by the apparatus information system. For all experiments:
(§7) A negative control (cells without ADR) fixed the autofluorescence threshold.
(§8) A positive control (cells with ADR) determined the MEAN value=MN1.
(§9) The "test" tubes (cells with ADR and with compound) were used to determine, for each of the compounds and at each of the concentrations, the MEAN values=MN2.
(§10) The results are expressed in the form of variations from the mean fluorescence obtained for each of the "test" tubes (MN2) in relation to the mean fluorescence obtained with the […] (MNl) : VAR-MEAN=MN2 -MN1. The parameter expressed is thus the increase in the fluorescence of adriamycin in the presence of the tested compounds.

[2] = test system: murine leukaemia P 388/ADR 10; test: Evaluation of the increase in cytotoxicity of adriamycin on the line P 388/ADR-10 in vitro (reversion factor); assay type: cell-based; conditions: adriamycin, P 388/ADR-10, 48 h, TOX = toxic
Description: In this study, the cytotoxicity of adriamycin was measured in the absence and in the presence of the reversing compound.
The compounds tested for their capacity to reverse MDR are added at the same time as the cytotoxic agent. The cells are then incubated for 48 hours.

[3] = test system: Chinese Hamster Pulmonary Line DC-3F/AD; test: Increase in the cytotoxicity of actinomycin D on the Chinese hamster pulmonary line DC-3F/AD; assay type: cell-based; conditions: 4 days;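 also: DC-3F/AD is an extremely resistant cell line whose resistance factor exceeds 10,000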
Description: The cytotoxic agent used was actinomycin D.
Line DC-3F/AD is an extremely resistant line. Its resistance factor is higher than 10,000.

[4] = test system: line DC-3F/AD; test: Flow cytometry, increase in fluorescence of ADR on the line DC-3F/AD; assay type: cell-based, Chinese Hamster; conditions: ADR 50 μM, 5 h
Description: as §1, §2, §3, §4, §5, §6, §7, §8, §9, §10

Structure (SMILES)	Increase in fluorescence of ADR (VAR-MEAN = MN2 - MN1) ([1]; compound 2 μM)	Increase in fluorescence of ADR (VAR-MEAN = MN2 - MN1) ([1]; compound 5 μM)	Increase in fluorescence of ADR (VAR-MEAN = MN2 - MN1) ([1]; compound 10 μM)	Increase in fluorescence of ADR (VAR-MEAN = MN2 - MN1) ([1]; compound 20 μM)	Reversion Factor (RF) ([2]; compound 2.5 μM)	Reversion Factor (RF) ([2]; compound 5 μM)	Reversion Factor (RF) ([2]; compound 10 μM)	Reversion Factor (RF) ([3]; compound 5 μM)	Reversion Factor (RF) ([3]; compound 10 μM)	Increase in fluorescence of ADR (VAR-MEAN = MN2 - MN1) ([4]; compound 2 μM)	Increase in fluorescence of ADR (VAR-MEAN = MN2 - MN1) ([4]; compound 5 μM)	Increase in fluorescence of ADR (VAR-MEAN = MN2 - MN1) ([4]; compound 10 μM)	Increase in fluorescence of ADR (VAR-MEAN = MN2 - MN1) ([4]; compound 20 μM)	Reversion Factor (RF) ([3]; compound 20 μM)	Reversion Factor (RF) ([3]; compound 2.5 μM)
COC(=O)C1=C(C)NC(C)=C(C(=O)OC)C1c1ccccc1[N+](=O)[O-] [NIFEDIPINE]	0.00	0.80	5.95	3.40	–	–	–	–	–	–	–	–	–	–	–
C=CCNc1nc(NCC=C)nc(N2CCC(N(C)CC(c3ccccc3)c3ccccc3)CC2)n1 [Example 4, 1-[4,6-bis(allylamino)-2-s-triazinyl)-4-[N-(2,2-di-phenylethyl)-N-methylamino]piperidine]	–	–	–	–	34.7	32.3	171.1	218	1256	12.3	24.1	41.9	49.0	–	–
C=C[C@H]1C[N@@]2CC[C@H]1C[C@@H]2[C@@H](O)c1ccnc2ccc(OC)cc12 [QUINIDINE]	6.65	12.80	22.00	29.90	–	6	17.4	< 12	< 12	–	–	–	–	< 12	–
COC(=O)[C@@H]1[C@H]2C[C@H]3c4[nH]c5ccccc5c4CCN3C[C@@H]2CC[C@@H]1O [YOHIMBINE]	2.30	0.05	4.70	3.45	–	–	–	< 12	< 12	–	–	–	–	< 12	–
CN(C)CCCN1c2ccccc2Sc2ccc(Cl)cc21 [CHLOROPROMAZINE]	3.30	5.15	4.60	6.20	–	–	–	< 13	< 12	–	–	–	–	< 13	–
COc1ccc(CCN(C)CCCC(C#N)(c2ccc(OC)c(OC)c2)C(C)C)cc1OC (stereo not drawn) [reference compound]	9.89	21.90	39.62	56.50	–	–	–	–	–	2.00	2.60	7.55	11.45	–	–
CCN(CC)CCCC(C)Nc1c2ccc(Cl)cc2nc2ccc(OC)cc12 (stereo not drawn) [QUINACRINE]	11.83	15.73	27.73	52.77	–	–	–	< 13	< 12	2.00	10.5	19.1	25.8	TOX	–
CC(=O)[C@H]1CC[C@H]2[C@@H]3CCC4=CC(=O)CC[C@]4(C)[C@H]3CC[C@]12C [PROGESTERONE]	1.85	1.00	6.85	11.80	–	1.7	2.5	< 10	< 10	–	–	–	–	13	–
c1ccc2c(c1)Nc1ccccc1S2 [PHENOTHIAZINE]	0.00	0.00	0.00	0.00	9.4	23.1	–	< 12	< 12	–	–	–	–	< 12	–
CN1CCN(CCCN2c3ccccc3Sc3ccc(C(F)(F)F)cc32)CC1 [TRIFLUOPERAZINE]	11.45	14.75	34.55	51.05	–	–	–	< 12	38	0.00	0.00	4.10	13.40	TOX	–
OCCN(CCO)c1nc(N2CCCCC2)c2nc(N(CCO)CCO)nc(N3CCCCC3)c2n1 [DIPYRIDAMOLE]	2.35	7.55	21.75	40.00	–	–	–	< 12	< 11	–	–	–	–	< 12	–
COc1ccc([C@@H]2Sc3ccccc3N(CCN(C)C)C(=O)[C@@H]2OC(C)=O)cc1 [DILTIAZEM]	3.10	6.65	13.45	23.15	–	–	–	< 11	< 10	–	–	–	–	< 11	–
Fc1ccc(C(c2ccc(F)cc2)N2CCN(C/C=C/c3ccccc3)CC2)cc1 [FLUNARIZINE]	7.35	10.10	19.90	41.00	–	–	25	< 13	16	–	–	–	–	TOX	–
C=C[C@H]1C[N@@]2CC[C@H]1C[C@H]2[C@H](O)c1ccnc2ccc(OC)cc12 [QUININE]	4.85	5.40	12.00	18.90	–	–	14.5	< 10	< 10	–	–	–	–	< 11	–
O=c1[nH]c2ccccc2n1C1CCN(CCCC(c2ccc(F)cc2)c2ccc(F)cc2)CC1 [PIMOZIDE]	25.60	49.42	73.13	73.64	–	–	–	28	78	5.85	8.85	15.65	21.60	TOX	< 10
